Patent US6423823B1, “Organic chemical compounds and method for producing the same” (Bayer Aktiengesellschaft, priority 1997, dated 2002)
Numbered stars: 1 amine (or outer) side, 2 acyl side, 3 side chain; on linkers, the order of the positions; unused ones are H or OH. Square brackets hold non-standard residues; d marks the D form. Peptide text beside a SMILES is read from it. ξ: configuration not given here. X1 = CC(OC(=O)CC(C)(C)O)C(C)C(C(=O)[*:2])N(C)[*:1]; X4 = CC(=O)OC(C)C(C)C(C(=O)[*:2])N(C)[*:1]; X3 = O=C(C1CC2(O)c3ccccc3NC2N1[*:1])[*:2]; ξNMeVal(3-OH) = CNC(C(=O)O)C(C)(C)O; NMeξGly(OAc) = CNC(OC(C)=O)C(=O)O; NMeI = CC[CH](C)[CH](NC)C(=O)O; X2 = CN(C(O)C(=O)[*:2])[*:1]; NMeV = CN[CH](C(=O)O)C(C)C; Sar = CNCC(=O)O

Columns and labels:
[1] = test system: Meloidogyne incognita; test: Nematicidal activity on phytopathogenic nematodes in 24-well tissue culture plates; settings: lethal dose for 90% of the nematode population, second larval stage, after 16 hours
Experimental: (§1) Test nematode: Meloidogyne incognita
Test method: The test substances are dissolved in methanol and pipetted into the wells of tissue culture plates (24-well tray). The solvent is evaporated, and 400 μl of nematode suspension are then added to each well of the tissue culture plate. The number of nematodes is 100 larvae of the second larval stage/400 μl . To promote the solubility of the samples in aqueous medium, the plate is shaken at 100 rpm for 15 minutes, and a first microscopic control is then carried out. After 16 hours, the percentage of dead larvae is determined and stated as LD90 (lethal dose for 90% of the nematode population).

[2] = test system: Spodoptera frugiperda; test: Insecticidal maize leaf test; assay type: in vivo; settings: lethal dose for 50% of larvae, third larval stage, after 72 hours
Experimental: Test Insect: Spodoptera frugiperda
Test method: A rectangle (1.5×2 cm) cut from maize leaves (8-10 day-old plant, variety Golda) is placed in a Petri dish (diameter 5.5 cm, Greiner). The test substance, as a methanolic solution, is applied to the maize leaf and, after the solvent has evaporated, a filter disc (diameter 13 mm, Schleicher und Schüll) saturated with water and a larva of the third larval stage are added. The larva is placed next to the piece of leaf. The experiment is incubated at 24° C. After 48 hours, untreated maize (1.5×2 cm) is added. The feed behaviour and the state of the larvae are evaluated after 24, 48 and 72 hours. Per test concentration, 4 experiments and 3 repetitions are carried out. The insecticidal effect is stated as LD50 (lethal dose for 50% of larvae) after 72 hours.

[3] = test system: Meloidogyne incognita; test: Effect on nematodes in the greenhouse (test crop: cucumbers); assay type: in vivo; settings: for Efficacy in %: cucumber plants, after 14 days, 100% = no galls formed; for Number of galls/plant: poured onto cucumber plants, evaluation after 14 days
Experimental: as §1
Test method: In each case two cucumber plants (variety Bella F1) are grown in a soil-leaf mixture in pots of the dimensions 7×7×6 cm. The test substances are, in the appropriate concentrations, dissolved in methanol and then diluted in water and then poured onto the cucumber plants, which are about 14 days old. Per drip, 10 ml of solution are poured on. 3 hours after the treatment, about 500 nematodes are pipetted as a suspension onto each pot. The pots are incubated in a greenhouse at a day temperature of about 26° C. and a night temperature of 20° C. After 14 days, evaluation is carried out by washing out the roots and determining the galls formed per plant.
The efficacy of the test substance is 100% if no galls have been formed, and it is 0% if the same number of galls have been formed as in the control.

[4] = test system: Plutella xylostella; test: Insecticidal leaf disc test (savoy cabbage); assay type: in vivo; settings: lethal dose for 100% of the larvae tested, third larval stage, after 72 hours
Experimental: Test insect: Plutella xylostella
(§2) Test method: Using a cork borer, 2 discs having a diameter of 10 mm are punched out of savoy cabbage leaves and placed in a Petri dish (diameter 5.5 cm, Greiner). The test substance is pipetted onto the leaf discs and, after the solvent has evaporated, a filter disc (diameter 13 mm, Schleicher und Schüll) saturated in water and 2 freshly hatched larvae of the third larval stage are added. The larvae are placed next to the leaf discs. The experiment is incubated at 24° C. After 48 hours, an untreated savoy cabbage disc (10 mm Ø) is added. The feed behaviour and the state of the larvae are evaluated after 24, 48 and 72 hours. Per test concentration, 2 experiments and 3 repetitions are carried out. The insecticidal effect is stated as LD100 (lethal dose for 100% of the larvae tested) after 72 hours.

[5] = test system: Phaedon cochleariae; test: Insecticidal leaf disc test (savoy cabbage); assay type: in vivo; settings: lethal dose for 100% of the larvae tested, third larval stage, after 96 hours
Experimental: Test insect: Phaedon cochleariae
as §2, with “und Schull)” for “und Schüll)”, “24, 48, 72” for “24, 48”, “and 96” for “and 72”, “after 96” for “after 72”

[6] = test system: Trichinella spiralis; test: In vitro test against Trichinella spiralis; settings: concentration of 1 μg/ml
Experimental: The test was carried out according to the test description in the publication Plant et al. (1996) Pesticide Science 48: 351-358.

[7] = test system: Heterakis spumosa; test: In vivo mouse model, intestinal nematode; settings: dosage of 50 mg/kg
Experimental: In the in vivo mouse model, omphalotin B has full activity against the intestinal nematode Heterakis spumosa at a dosage of 50 mg/kg. The test is described in the above publication.

Row | SMILES | Nematicidal activity against Meloidogyne incognita LD90 [1] | Insecticidal activity against Spodoptera frugiperda LD50 [2] | Efficacy in % ([3]; 2 ppm) | Number of galls/plant ([3]; 2 ppm) | Efficacy in % ([3]; 5 ppm) | Number of galls/plant ([3]; 5 ppm) | Insecticidal activity against Plutella xylostella LD100 [4] | Insecticidal activity against Phaedon cochleariae LD100 [5] | Effect against Trichinella spiralis in vitro [6] | Activity against the intestinal nematode Heterakis spumosa [7]
1 | CCC(C)C1NC(=O)C(C(C)C)N(C)C(=O)C2CC3(O)c4ccccc4NC3N2C(=O)CN(C)C(=O)C(C(C)CC)N(C)C(=O)C(C(C)C)NC(=O)C(OC(C)=O)N(C)C(=O)C(C(C)C(C)OC(=O)CC(C)(C)O)N(C)C(=O)C(C(C)(C)O)N(C)C(=O)CN(C)C(=O)C(C(C)C)N(C)C(=O)C(C(C)C)N(C)C1=O (centres unmarked) [Omphalotin C] (cyclo([Sar][ξNMeVal(3-OH)][X1][NMeξGly(OAc)]V[NMeI][Sar][X3][NMeV]I[NMeV][NMeV]); configuration not given here) | 1 µg/mL | 100 μg/maize leaf | 99% | 1 | 100% | 0 | – | – | – | –
2 | CCC(C)C1NC(=O)C(C(C)C)N(C)C(=O)C2CC3(O)c4ccccc4NC3N2C(=O)CN(C)C(=O)C(C(C)CC)N(C)C(=O)C(C(C)C)NC(=O)C(OC(C)=O)N(C)C(=O)C(C(C)C(C)OC(C)=O)N(C)C(=O)C(C(C)(C)O)N(C)C(=O)CN(C)C(=O)C(C(C)C)N(C)C(=O)C(C(C)C)N(C)C1=O (centres unmarked) [Omphalotin D] (cyclo([Sar][ξNMeVal(3-OH)][X4][NMeξGly(OAc)]V[NMeI][Sar][X3][NMeV]I[NMeV][NMeV]); configuration not given here) | 4 µg/mL | 80 μg/maize leaf | – | – | – | – | 100 μg/leaf disc | 100 μg/leaf disc | – | –
3 | CCC(C)C1NC(=O)C(C(C)C)N(C)C(=O)C2CC3(O)c4ccccc4NC3N2C(=O)CN(C)C(=O)C(C(C)CC)N(C)C(=O)C(C(C)C)NC(=O)C(O)N(C)C(=O)C(C(C)C(C)OC(=O)CC(C)(C)O)N(C)C(=O)C(C(C)(C)O)N(C)C(=O)CN(C)C(=O)C(C(C)C)N(C)C(=O)C(C(C)C)N(C)C1=O (centres unmarked) [Omphalotin B] (cyclo([Sar][ξNMeVal(3-OH)][X1][X2]V[NMeI][Sar][X3][NMeV]I[NMeV][NMeV]); configuration not given here) | 2.5 µg/mL | – | 99% | 1 | 100% | 0 | – | – | full effect | full activity
